Data on 30 compounds can be found in patent publication US9409914B2, “Triazolo[4,5-d]pyrimidine derivatives” (Merck Patent GmbH, priority 2012, dated 2016).

One may read the IC50 as the point on the concentration scale where inhibition reaches its midpoint. A higher IC50 goes with a need for much substance.

A value given as a limit tells only on which side of the number the result lay.

GCN2, sequence (Q9P2K8 whole entry, species assumed): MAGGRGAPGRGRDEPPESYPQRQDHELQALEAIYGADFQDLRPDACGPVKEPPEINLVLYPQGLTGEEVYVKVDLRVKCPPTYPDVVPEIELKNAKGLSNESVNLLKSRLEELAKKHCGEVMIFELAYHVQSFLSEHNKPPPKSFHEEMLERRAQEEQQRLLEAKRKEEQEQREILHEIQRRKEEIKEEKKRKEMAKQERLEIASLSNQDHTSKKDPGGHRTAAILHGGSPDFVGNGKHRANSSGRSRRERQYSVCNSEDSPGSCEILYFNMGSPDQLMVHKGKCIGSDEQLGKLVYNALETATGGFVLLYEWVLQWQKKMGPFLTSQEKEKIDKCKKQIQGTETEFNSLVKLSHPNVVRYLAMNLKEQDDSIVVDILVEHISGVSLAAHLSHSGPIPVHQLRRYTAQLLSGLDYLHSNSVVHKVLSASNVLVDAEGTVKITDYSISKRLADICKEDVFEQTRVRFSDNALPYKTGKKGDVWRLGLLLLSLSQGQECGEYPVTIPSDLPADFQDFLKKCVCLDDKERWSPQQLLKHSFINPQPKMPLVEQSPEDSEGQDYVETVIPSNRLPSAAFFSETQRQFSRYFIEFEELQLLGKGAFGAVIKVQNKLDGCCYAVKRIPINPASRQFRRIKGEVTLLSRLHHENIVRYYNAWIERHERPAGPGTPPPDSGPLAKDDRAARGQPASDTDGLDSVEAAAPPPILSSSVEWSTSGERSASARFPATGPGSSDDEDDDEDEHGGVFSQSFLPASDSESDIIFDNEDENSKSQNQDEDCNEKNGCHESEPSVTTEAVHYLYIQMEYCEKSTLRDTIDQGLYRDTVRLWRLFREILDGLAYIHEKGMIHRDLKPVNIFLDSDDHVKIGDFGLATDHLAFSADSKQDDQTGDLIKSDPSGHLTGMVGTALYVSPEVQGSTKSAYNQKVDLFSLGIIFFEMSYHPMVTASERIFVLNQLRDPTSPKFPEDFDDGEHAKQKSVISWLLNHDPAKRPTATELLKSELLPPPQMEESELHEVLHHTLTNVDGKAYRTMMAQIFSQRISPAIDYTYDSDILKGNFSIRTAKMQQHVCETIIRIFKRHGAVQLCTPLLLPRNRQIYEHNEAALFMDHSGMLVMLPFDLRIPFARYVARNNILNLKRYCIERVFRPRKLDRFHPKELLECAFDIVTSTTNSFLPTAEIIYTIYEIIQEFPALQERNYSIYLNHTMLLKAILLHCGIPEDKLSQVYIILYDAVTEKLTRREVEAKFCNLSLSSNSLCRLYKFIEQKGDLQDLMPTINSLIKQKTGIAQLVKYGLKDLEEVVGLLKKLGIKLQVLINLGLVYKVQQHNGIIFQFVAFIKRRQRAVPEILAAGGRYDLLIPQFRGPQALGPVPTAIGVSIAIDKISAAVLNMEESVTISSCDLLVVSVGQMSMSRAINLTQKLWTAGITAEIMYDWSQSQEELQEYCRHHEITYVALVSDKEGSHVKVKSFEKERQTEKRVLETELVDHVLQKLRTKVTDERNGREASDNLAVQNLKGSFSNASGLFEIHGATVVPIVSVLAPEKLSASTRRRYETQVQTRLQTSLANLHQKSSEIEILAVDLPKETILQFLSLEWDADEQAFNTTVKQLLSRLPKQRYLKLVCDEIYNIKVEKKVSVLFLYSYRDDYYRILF

In this assay the target is GCN2 (Homo sapiens, UniProt Q9P2K8). As to the kind of experiment: GCN2 enzyme assay (TR-FRET Lanthascreen, phosphorylation of GFP-eIF2alpha). It is filed as biochemical. Conditions: 10 μM ATP, 80 nM GFP-eIF2alpha, 30 nM GCN2, room temperature. The source says:
GCN2: Assay principle & conditions
This assay can quantificate the activity of the serin kinase GCN2 (general control non-derepressible-2).
This kinase is involved in the stress metabolism of cells. It is activated upon starvation (amino acid depletion). Its natural substrate is eIF2a (eukaryotic initiation factor 2 alpha subunit), a translation factor, which gets activated (phosphorylated) by GCN2 in case of an amino acid bottleneck in the cells. This in turn leads to a halt of the protein synthesis. Inhibition of GCN2 results in stopping this mechanism: The cell can not stop protein production upon “starvation” stress.
The assay is run in two steps: the enzymatic reaction and the detection step. In the first step GCN2 is incubated with 10 μM ATP and 80 nM of the GFP-labelled substrate eIF2alpha at room temperature.
The enzymatic reaction is stopped by addition of EDTA. The amount of phosphorylated eIF2alpha is determined by TR-FRET (Lanthascreen): A complex is formed consisting of antibody and GFP labelled phospho-eIF2a, which allows a FRET upon exitation at 340 nm.
The GCN2-activity is directly proportional to the ratio of fluorescence units at the emission wavelengthh 520 nm (phosphopeptide-sensitive wavelength=emission of GFP) to the units at 495 nm (reference wavelength=emission of Terbium-chelate).
Final Concentrations in the Enzymatic Reaction
Background: Time-resolved FRET reads energy transfer from a long-lived donor to a nearby acceptor.
In turn, `CCOc1ccc(-n2nnc3cnc(Nc4cn[nH]c4)nc32)cc1` [Compound A5, [3-(4-ethoxy-phenyl)-3H-[1,2,3]triazolo[4,5-d]pyrimidin-5-yl]-(1H-pyrazol-4-yl)-amine] showed a half-maximal inhibitory concentration (IC50) of under 300 nM. For `CCOc1ccc(-n2nnc3cnc(Nc4cnn(CCN5CCOCC5=O)c4)nc32)cc1` [Compound A149, 4-(2-{4-[3-(4-ethoxy-phenyl)-3H-[1,2,3]triazolo[4,5-d]pyrimidin-5-ylamino]-pyrazol-1-yl}-ethyl)-morpholin-3-one], the IC50 was under 300 nM. `COC(=O)c1ccc(-n2nnc3cnc(Nc4cnn(C5CCOCC5)c4)nc32)cc1` [Compound A113, 4-{5-[1-(tetrahydro-pyran-4-yl)-1H-pyrazol-4-ylamino]-[1,2,3]triazolo[4,5-d]pyrimidin-3-yl}-benzoic acid methyl ester] yielded a half-inhibitory concentration (IC50) of under 300 nM.

As to `COCCCn1cc(Nc2ncc3nnn(-c4ccc(OC)cc4)c3n2)cn1` [Compound A9, [3-(4-methoxy-phenyl)-3H-[1,2,3]triazolo[4,5-d]pyrimidin-5-yl]-[1-(3-methoxy-propyl)-1H-pyrazol-4-yl]-amine], the IC50 lay in the range of 300 to 3000 nM. The same measure for `COc1ccc(-n2nnc3cnc(Nc4cnn([C@H]5CC[C@@H](O)CC5)c4)nc32)nc1` [Compound A141, 4-{4-[3-(5-methoxy-pyridin-2-yl)-3H-[1,2,3]triazolo[4,5-d]pyrimidin-5-ylamino]-pyrazol-1-yl}-cyclohexanol]: under 300 nM; for `CC(C)(F)c1ccc(-n2nnc3cnc(Nc4cnn(C5CCOCC5)c4)nc32)cc1` [Compound A144, {3-[4-(1-fluoro-1-methyl-ethyl)-phenyl]-3H-[1,2,3]triazolo[4,5-d]pyrimidin-5-yl}-[1-(tetrahydro-pyran-4-yl)-1H-pyrazol-4-yl]-amine]: under 300 nM. With `COc1ccc(-n2nnc3cnc(Nc4ccn(C)n4)nc32)cc1` [Compound A2, [3-(4-methoxy-phenyl)-3H-[1,2,3]triazolo[4,5-d]pyrimidin-5-yl]-(1-methyl-1H-pyrazol-3-yl)-amine], the IC50 fell in the range of 3000 to 50000 nM. As to `COCCCn1cc(Nc2ncc3nnn(-c4ccc(Cl)c(F)c4)c3n2)cn1` [Compound A50, [3-(4-chloro-3-fluoro-phenyl)-3H-[1,2.3]triazolo[4,5-d]pyrimidin-5-yl]-[1-(3-methoxy-propyl)-1H-pyrazol-4-yl]-amine], the half-inhibitory concentration (IC50) was under 300 nM. For the compound `CC(C)CCn1cc(Nc2ncc3nnn(-c4ccc5ncccc5c4)c3n2)cn1` [Compound A90, [1-(3-methyl-butyl)-1H-pyrazol-4-yl]-(3-quinolin-6-yl-3H-[1,2,3]triazolo[4,5-d]pyrimidin-5-yl)-amine], the half-maximal inhibitory concentration (IC50) is under 300 nM. As for `Fc1ccc(-n2nnc3cnc(Nc4cnn(C5CCOCC5)c4)nc32)cc1Cl` [Compound A110, [3-(3-chloro-4-fluoro-phenyl)-3H-[1,2,3]triazolo[4,5-d]pyrimidin-5-yl]-[1-(tetrahydro-pyran-4-yl)-1H-pyrazol-4-yl]-amine], the figure is 300 to 3000 nM; as for `c1cnc2cc(-n3nnc4cnc(Nc5cnn(C6COC6)c5)nc43)ccc2c1` [Compound A112, (1-oxetan-3-yl-1H-pyrazol-4-yl)-(3-quinolin-7-yl-3H-[1,2,3]triazolo[4,5-d]pyrimidin-5-yl)-amine], 300 to 3000 nM.

`O=S(=O)(c1ccc(-n2nnc3cnc(Nc4cnn(CCn5cccn5)c4)nc32)cc1)N1CCCC1` [Compound A133, [1-(2-pyrazol-1-yl-ethyl)-1H-pyrazol-4-yl]-{3-[4-(pyrrolidine-1-sulfonyl)-phenyl]-3H-[1,2,3]triazolo[4,5-d]-pyrimidin-5-yl}-amine] gave an IC50 of under 300 nM. The same measure for `Fc1ccc(-n2nnc3cnc(Nc4cnn(C5CCOCC5)c4)nc32)cc1` [Compound A20, [3-(4-fluoro-phenyl)-3H-[1,2,3]triazolo[4,5-d]pyrimidin-5-yl]-[1-(tetrahydro-pyran-4-yl)-1H-pyrazol-4-yl]-amine]: under 300 nM; for `O[C@H]1CC[C@@H](n2cc(Nc3ncc4nnn(-c5ccc(Cl)c(F)c5)c4n3)cn2)CC1` [Compound A102, 4-{4-[3-(4-chloro-3-fluoro-phenyl)-3H-[1,2,3]triazolo[4,5-d]pyrimidin-5-ylamino]-pyrazol-1-yl}-cyclohexanol]: 300 to 3000 nM; for `COc1ccc(-n2nnc3cnc(Nc4cnn([C@H]5CC[C@H](O)CC5)c4)nc32)cn1` [Compound A109, 4-{4-[3-(6-methoxy-pyridin-3-yl)-3H-[1,2,3]triazolo[4,5-d]pyrimidin-5-ylamino]-pyrazol-1-yl}-cyclohexanol]: 300 to 3000 nM. In turn, `CN1CCC(n2cc(Nc3ncc4nnn(-c5ccc(S(=O)(=O)N6CCCC6)cc5)c4n3)cn2)CC1` [Compound A136, [1-(1-methyl-piperidin-4-yl)-1H-pyrazol-4-yl]-{3-[4-(pyrrolidine-1-sulfonyl)-phenyl]-3H-[1,2,3]triazolo[4,5-d]pyrimidin-5-yl}-amine] displayed an IC50 of 300 to 3000 nM. With `CCn1cc(-n2nnc3cnc(Nc4cnn(CCC(C)C)c4)nc32)cn1` [Compound A89, [3-(1-ethyl-1H-pyrazol-4-yl)-3H-[1,2,3]triazolo[4,5-d]pyrimidin-5-yl]-[1-(3-methyl-butyl)-1H-pyrazol-4-yl]-amine], the IC50 is under 300 nM. As for `O=C1COCCN1n1cc(Nc2ncc3nnn(-c4ccc5cccnc5c4)c3n2)cn1` [Compound A145, 4-[4-(3-quinolin-7-yl-3H-[1,2,3]triazolo[4,5-d]pyrimidin-5-ylamino)-pyrazol-1-yl]-morpholin-3-one], the figure is 300 to 3000 nM; as for `Cn1ccc(-n2nnc3cnc(Nc4cnn(C5CCOCC5)c4)nc32)n1` [Compound A147, [3-(1-methyl-1H-pyrazol-3-yl)-3H-[1,2,3]triazolo[4,5-d]pyrimidin-5-yl]-[1-(tetrahydro-pyran-4-yl)-1H-pyrazol-4-yl]-amine], 300 to 3000 nM. The compound `CCn1cc(Nc2ncc3nnn(-c4ccc(F)cc4C#N)c3n2)cn1` [Compound A72, 2-[5-(1-ethyl-1H-pyrazol-4-ylamino)-[1,2,3]triazolo[4,5-d]pyrimidin-3-yl]-5-fluoro-benzonitrile] yielded a half-inhibitory concentration (IC50) of 300 to 3000 nM. Take `CN1CCC(n2cc(Nc3ncc4nnn(-c5ccc(Cl)cc5)c4n3)cn2)CC1` [Compound A153, [3-(4-chloro-phenyl)-3H-[1,2,3]triazolo[4,5-d]pyrimidin-5-yl]-[1-(1-methyl-piperidin-4-yl)-1H-pyrazol-4-yl]-amine]: the 50% inhibitory concentration (IC50) was under 300 nM. As for `CC(C)(C)OCCn1cc(Nc2ncc3nnn(-c4ccc(Cl)c(F)c4)c3n2)cn1` [Compound A53, [1-(2-tert-butoxy-ethyl)-1H-pyrazol-4-yl]-[3-(4-chloro-3-fluoro-phenyl)-3H-[1,2,3]triazolo[4,5-d]pyrimidin-5-yl]-amine], the figure is 300 to 3000 nM; as for `CC(=O)Nc1ccc(-n2nnc3cnc(Nc4cnn(C[C@@H]5C[C@H]5CO)c4)nc32)cn1` (relative stereo) [Compound A59, N-(5-{5-[1-((trans)-2-hydroxymethyl-cyclopropylmethyl)-1H-pyrazol-4-ylamino]-[1,2,3]triazolo[4,5-d]pyrimidin-3-yl}-pyridin-2-yl)-acetamide], 300 to 3000 nM. Regarding `O[C@H]1CC[C@@H](n2cc(Nc3ncc4nnn(-c5ccc6nccnc6c5)c4n3)cn2)CC1` [Compound A105, 4-[4-(3-quinoxalin-6-yl-3H-[1,2,3]triazolo[4,5-d]pyrimidin-5-ylamino)-pyrazol-1-yl]-cyclohexanol], the IC50 is under 300 nM.

With `CN1CCC(n2cc(Nc3ncc4nnn(-c5cnc6ccccc6c5)c4n3)cn2)CC1` [Compound A52, [1-(1-methyl-piperidin-4-yl)-1H-pyrazol-4-yl]-(3-quinolin-3-yl-3H-[1,2,3]triazolo[4,5-d]pyrimidin-5-yl)-amine], the 50% inhibitory concentration (IC50) was under 300 nM. As for `CN1CCC(n2cc(Nc3ncc4nnn(-c5ccc(F)cc5C#N)c4n3)cn2)CC1` [Compound A74, 5-fluoro-2-{5-[1-(1-methyl-piperidin-4-yl)-1H-pyrazol-4-ylamino]-[1,2,3]triazolo[4,5-d]pyrimidin-3-yl}-benzonitrile], the figure is 300 to 3000 nM; as for `CCOc1ccc(-n2nnc3cnc(Nc4cnn(C5CCOCC5)c4)nc32)cc1` [Compound A15, [3-(4-ethoxy-phenyl)-3H-[1,2,3]triazolo[4,5-d]pyrimidin-5-yl]-[1-(tetrahydro-pyran-4-yl)-1H-pyrazol-4-yl]-amine], under 300 nM. In turn, `Nc1ccc(-n2nnc3cnc(Nc4cnn(C[C@@H]5C[C@H]5CO)c4)nc32)cn1` (relative stereo) [Compound A60, ((trans)-2-{4-[3-(6-amino-pyridin-3-yl)-3H-[1,2,3]triazolo[4,5-d]pyrimidin-5-ylamino]-pyrazol-1-ylmethyl}-cyclopropyl)-methanol] had an IC50 of 300 to 3000 nM. As for `COc1ccc(-n2nnc3cnc(Nc4cnn(C5CCOCC5)c4)nc32)cc1` [Compound A13, [3-(4-methoxy-phenyl)-3H-[1,2,3]triazolo[4,5-d]pyrimidin-5-yl]-[1-(tetrahydro-pyran-4-yl)-1H-pyrazol-4-yl]-amine], the figure is under 300 nM. With `CCn1cc(Nc2ncc3nnn(-c4ccc(C(C)(C)N)cc4)c3n2)cn1` [Compound A148, {3-[4-(1-amino-1-methyl-ethyl)-phenyl]-3H-[1,2,3]triazolo[4,5-d]pyrimidin-5-yl}-(1-ethyl-1H-pyrazol-4-yl)-amine], the 50% inhibitory concentration (IC50) was in the range of 300 to 3000 nM.
